According to US9420813B2, “Sweetener” (AJINOMOTO CO., INC., priority 2007, dated 2016):
*1 amine or outer side, *2 acyl side, *3 side chain or, on linkers, in order; H or OH if unused. Where no end group is shown, it is not given here. [ ]: non-standard residue; d: D form. γGlu = O=C(O)[C@H](CCC(=O)[*:2])N[*:1]; Abu = CC[C@H](N)C(=O)O

Target: T1, human calcium receptor (Homo sapiens, UniProt P41180)
T1 construct: expressed in transfected cells; host or cells: Xenopus laevis oocytes injected with receptor cRNA; the gene was amplified by PCR from human kidney cDNA (Clontech) and cloned in pBR322
T1 sequence (P41180 20-1078): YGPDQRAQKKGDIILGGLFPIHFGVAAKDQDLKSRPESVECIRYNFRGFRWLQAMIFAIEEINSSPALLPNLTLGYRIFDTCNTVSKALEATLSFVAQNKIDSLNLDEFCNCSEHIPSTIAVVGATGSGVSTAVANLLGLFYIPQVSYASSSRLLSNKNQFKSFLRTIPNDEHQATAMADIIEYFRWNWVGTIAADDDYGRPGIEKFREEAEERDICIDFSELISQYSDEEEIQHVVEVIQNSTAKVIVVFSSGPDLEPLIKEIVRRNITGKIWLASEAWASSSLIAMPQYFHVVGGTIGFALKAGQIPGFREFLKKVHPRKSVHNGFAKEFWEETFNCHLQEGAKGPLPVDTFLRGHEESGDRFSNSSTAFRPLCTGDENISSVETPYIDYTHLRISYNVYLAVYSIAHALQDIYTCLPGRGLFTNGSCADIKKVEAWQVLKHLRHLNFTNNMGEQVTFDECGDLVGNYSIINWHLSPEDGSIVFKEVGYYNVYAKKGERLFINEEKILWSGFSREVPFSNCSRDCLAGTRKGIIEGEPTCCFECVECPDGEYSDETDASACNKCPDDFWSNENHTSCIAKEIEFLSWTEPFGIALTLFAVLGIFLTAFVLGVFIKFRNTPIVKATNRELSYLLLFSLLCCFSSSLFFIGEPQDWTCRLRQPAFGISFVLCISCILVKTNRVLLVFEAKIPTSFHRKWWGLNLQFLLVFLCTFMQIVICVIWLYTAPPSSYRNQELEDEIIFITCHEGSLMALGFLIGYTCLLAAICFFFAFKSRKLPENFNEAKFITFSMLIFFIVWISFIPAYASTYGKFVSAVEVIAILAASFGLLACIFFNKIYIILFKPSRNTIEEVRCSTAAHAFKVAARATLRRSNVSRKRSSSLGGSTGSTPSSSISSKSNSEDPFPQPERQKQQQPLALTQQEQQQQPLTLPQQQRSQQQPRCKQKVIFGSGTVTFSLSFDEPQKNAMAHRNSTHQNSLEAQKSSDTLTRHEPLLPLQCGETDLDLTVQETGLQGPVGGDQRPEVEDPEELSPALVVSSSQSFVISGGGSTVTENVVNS
Experiment: Calcium receptor-activating effect, Ca ion concentration-dependent Cl ionic current in Xenopus laevis oocyte expression system
Format: cell-based
Conditions: for Activity (lowest concentration at which current is detected): peptide added at 1,000 to 0.1 μM, Ca ion concentration-dependent Cl response current, oocytes voltage-clamped at −70 mV
Procedure: For evaluation of the calcium receptor-activating effect, Ca ion concentration-dependent Cl ionic current measuring method using a Xenopus laevis oocyte expression system was used. If activator is added to Xenopus laevis oocytes in which the calcium receptor is expressed, intracellular Ca ions increase. Then, the Ca ion concentration-dependent Cl channel opens, and the intracellular current value changes as an ionic current. By measuring the change in the intracellular current value, whether the calcium receptor-activating effect is present or not can be determined.
Specifically, the abdomen of Xenopus laevis was opened, and an egg batch was taken out and then treated with a 1% collagenase solution at 20° C. for 2 hours to obtain individual oocytes. Into each oocyte, 50 nl of 1 μg/μl receptor cRNA or 50 nl of sterilized water per oocyte were injected by using a micro glass capillary, and the oocytes were cultured at 18° C. for 2 to 3 days. For the culture, a solution obtained by adding 2 mM of pyruvic acid, 10 U/ml of penicillin and 10 μg/ml of streptomycin to the solution in Reference Example 2 was used. After the culture, a test solution was added to the oocytes injected with cRNA or sterilized water. Electrophysiological measurement was performed by using an amplifier Geneclamp 500 (manufactured by Axon) and recording software AxoScope 9.0 (manufactured by Axon). The oocytes were voltage-clamped at −70 mV by the double electrode voltage clamp method, and the intracellular current via the Ca ion concentration-dependent Cl ion was measured. The maximum value of the intracellular currents was defined as the response current value.
The ability of L-amino acids to activate the calcium receptor was evaluated by using the method described in Reference Example 6. That is, oocytes injected with cRNA of the calcium receptor or sterilized water were prepared, and voltage-clamped at −70 mV by the double electrode voltage clamp method. To the voltage-clamped oocytes, alanine (10 mM), arginine (10 mM), asparagine (10 mM), aspartic acid (10 mM), cysteine (10 mM), glutamine (10 mM), glutamic acid (10 mM), glycine (10 mM), histidine (10 mM), isoleucine (10 mM), leucine (10 mM), lysine (10 mM), methionine (10 mM), phenylalanine (10 mM), proline (10 mM), serine (10 mM), threonine (10 mM), tryptophan (10 mM), tyrosine (10 mM), valine (10 mM), ornithine (10 mM), taurine (10 mM) or hydroxyproline (10 mM) was added, and Ca ion concentration-dependent Cl response current was measured. […] 25, 2000, 97(9): 4814-9.
The effect of D-cysteine for activating a calcium receptor was evaluated by using the method described in Reference Example 6. That is, oocytes injected with cRNA of the calcium receptor or sterilized water were prepared, and voltage-clamped at −70 mV by the double electrode voltage clamp method. To the voltage-clamped oocytes, D-cysteine (10 mM), L-cysteine (10 mM), D-tryptophan (10 mM) or L-tryptophan (10 mM) was added, and Ca ion concentration-dependent Cl response current was measured.
The effect of peptide for activating calcium receptor was evaluated by using the method described in Reference Example 6. That is, oocytes injected with cRNA of the calcium receptor or sterilized water were prepared, and voltage-clamped at −70 mV by the double electrode voltage clamp method. To the voltage-clamped oocytes, γ-Glu-Cys-Gly (50 μM), γ-Glu-Cys(SNO)-Gly (50 μM), γ-Glu-Ala (50 μM), γ-Glu-Gly (500 μM), γ-Glu-Cys (50 μM), γ-Glu-Met (500 μM), γ-Glu-Thr (50 μM), γ-Glu-Val (50 μM), γ-Glu-Orn (500 μM), Asp-Gly (1 mM), Cys-Gly (1 mM), Cys-Met (1 mM), Glu-Cys (50 μM), Gly-Cys (500 μM) or Leu-Asp (1 mM) was added, and Ca ion concentration-dependent Cl response current was measured.
The ability of a peptide to activate calcium receptor was evaluated in the same manner as that of Reference Example 10.

Row | Compound | Activity (lowest concentration at which current is detected) [µM] | effect for activating calcium receptor (Cl response current) (peptide added at 50 μM)
1 | [γGlu]-[Abu]-Gly | 3 | –
2 | [γGlu]-Val-Gly | 0.1 | –
3 | N[C@@H](CCC(=O)N[C@@H](CS)C(=O)NCC(=O)O)C(=O)O [γ-Glu-Cys-Gly, reference compound] | – | definite effect for activating calcium receptor
